Literature values in patent US8124639B2, “Bicyclic [3.1.0] heteroaryl amides as type 1 glycine transport inhibitors” (Pfizer Inc., priority 2005, dated 2012).

Tested on: NMDA receptor
Conditions: effect blocked by a specific NMDA-site antagonist and a glycine-site antagonist

## CN(CCC(Oc1ccc(-c2ccccc2)cc1)c1ccc(F)cc1)CC(=O)O (stereo not shown) [NFPS]
  effect on postsynaptic current driven by the NMDA receptor: increased the postsynaptic current driven by the NMDA receptor
